Results as given in patent US20250222028A1, “ENGINEERED IMMUNE CELL PLATFORM” (Cancer Research Technology Limited, priority 2022, published 2025).

Tests used:
RMA/S tumour cells [1] = assay: LDH killing assay, murine NK cells with NK-sensitive RMA/S cells; format: cell-based; settings: 5 μM GANT61 vs carrier control
Protocol: (§1) FIG. 4. Gli1 is important for specific tumour cell killing by murine NK cells. (A) NK cells were isolated from WT C57BL/6 mice and were treated using either the Gli1/Gli2 inhibitor GANT61 (squares) or carrier control (circles). LDH killing assays (left panel) and VITAL assays (right panel) were performed to assess specific cell killing of NK-sensitive RMA/S tumour cells. Left panel: Representative data of n=3 independent experiments. Right panel: data from 2 individual mice per genotype. (B) To specifically investigate the contribution of Gli1 towards NK cell effector function, LDH killing assays (left panel) and VITAL assays (right panel) were performed using NK cells isolated from both WT (circles) and Gli1 knockout (KO, squares) mice. Left panel: representative data from n=2 independent experiments. Right panel: data from 2 individual mice per genotype.
(§2) It was hypothesised that the therapeutic effect of L-type Cav channel agonists may be conserved between CD8+ T and NK cells. To investigate this hypothesis, NK cells were isolated from spleens of C57BL/6 wildtype mice using a MACS negative isolation protocol, and expanded in vitro for 7 days in the presence of 500 IU/L IL-2. […]

RMA/S tumour cells [2] = assay: VITAL assay, murine NK cells with NK-sensitive RMA/S cells; format: cell-based; settings: 5 μM GANT61 vs carrier control
Protocol: as §1, §2

[3] = test system: B cells (as target cells); assay: LDH assay, murine cytotoxic CD4+ T cells (OT-II) with B cells as target cells; format: cell-based; settings: 5 μM, 24 h prior to co-culture, vs carrier control
Protocol: FIG. 8. Gli1 mediates specific cell killing by murine cytotoxic CD4+ T cells. Cytotoxic CD4+ T cells were generated from OT-II mice and treated with 5 μM Gli1/Gli2 inhibitor GANT61 (grey) or carrier control (black) for 24 hours before an LDH assay was performed to assess specific cell killing. Data is from n=3 independent experiments.
Experiments 1, 2, 3 and 4 identify Gli1 transcription as a mediator of specific cell killing in CD8+ CTLs and in NK cells, in humans and in mice. To investigate whether Gli1 also plays a role in driving the effector function of CD4+ T cells, cells were isolated from the spleens of OT-II mice and CTLs were generated. Cells were treated using GANT61 at a concentration of 5 μM or carrier control, 24 h prior to being co-cultured with B cells (as target cells) at the effector:target ratios indicated in FIG. 8.

cytotoxic CD4+ T cells = assay: Flow cytometric analysis of Granzyme B and IFNγ in cytotoxic CD4+ T cells; format: cell-based, mice; settings: 5 μM, 24 h
Protocol: FIG. 9. GzmB content and IFNγ secretion are unaffected by Gli inhibition in cytotoxic CD4+ T cells. Cytotoxic CD4+ cells were generated from OT-II mice and treated with 5 μM GANT61 or carrier control on day 7 for 24 h prior to flow cytometric analysis of Granzyme B (GzmB) and IFNγ levels on day 8. (A) Representative flow cytometry plots in unstimulated (top panel) or restimulated CD4+ T cells (bottom panel). (B) Quantification of steady state GzmB levels and IFNγ levels upon restimulation. Data is from n=3 independent experiments.
(§3) To investigate this further, the effect of GANT61 inhibition on Granzyme B and IFNγ secretion was investigated. Cytotoxic CD4+ cells were generated from OT-II mice and treated with 5 μM GANT61 or carrier control on day 7 for 24 h prior to flow cytometric analysis of Granzyme B (GzmB) and IFNγ levels on day 8. NK cells were isolated from C57BL/6 mice and treated with 10 μM GANT61 or carrier control (EtOH) overnight (˜18 hours) prior to analysis of intracellular granzyme B (GzmB) and IFNγ expression by flow cytometry. In both cytotoxic CD4+ cells (FIG. 9) and NK cells (FIG. 10), the GzmB content and IFNγ secretion were unaffected by Gli inhibition.

NK cells = assay: Flow cytometric analysis of Granzyme B and IFNγ in NK cells; format: cell-based, mice; settings: 10 μM, overnight (~18 hours)
Protocol: FIG. 10. GzmB content and IFNγ secretion are unaffected by Gli inhibition in NK cells. NK cells were isolated from C57BL/6 mice and treated with 10 μM GANT61 or carrier control (EtOH) overnight (˜18 hours) prior to analysis of intracellular granzyme B (GzmB) and IFNγ expression by flow cytometry. (A) Representative flow cytometry plots. (B) Quantification of flow cytometry plots. Data is from n=2 mice, 1 independent experiment.
as §3

K562 target cells = assay: Flow-cytometry based killing assay, human Vγ9Vδ2 gammadelta T cells with K562 target cells; format: cell-based; settings: pre-treated overnight with GANT61, co-culture 24 h
Protocol: FIG. 12. GLI1 is important for tumour cell killing of human Vγ9Vδ2 gammadelta T cells and treatment with L-type voltage gated Ca2+ channel agonist FPL 64176 increases killing capacity. PBMCs were isolated from Buffy Coats of healthy donors using SepMate PBMC Isolation Tubes. Vγ9Vδ2 expansion was induced by plating PBMCs at 1×10^6 concentration with 1 μM of Zoledronate in the presence of 100 IU/mL IL-2 and 120 IU/mL IL-15. Cells were split every 2-3 days from day 6 until day 20. Killing assays were conducted between day 16-20. (A) Vγ9Vδ2 T lymphocytes were incubated with Gli1/2 inhibitor GANT61 or EToH (carrier control) overnight and subsequently co-cultured with K562 target cells for 24 h at the indicated effector to target ratios and subjected to a flow-cytometry based killing assay. n=1 individual donor. (B) Vγ9Vδ2 cells were pre-incubated with 10 μM FPL 64176 or EToH (carrier control) before being co-cultured with K562 target cells at indicated effector to target ratios and subjected to a flowcytometric cytotoxicity assay in the presence of 10 μM FPL 64176 or EToH (carrier control). Killing was assessed after 24 hours. Tumour cell killing normalised to carrier treated cells at a 10:1 effector:target ratio. n=4 individual healthy donors from 2 independent experiments. […]

P815 target cells = format: cell-based, human
Protocol: FIG. 15. GLI inhibitor GANT61 reduces tumour cell killing of human CD8+ cytotoxic T lymphocytes. PBMCs were isolated from Buffy Coats of healthy donors using SepMate PBMC Isolation Tubes. CD8+ T cells were isolated using negative selection (Miltenyi Biotec, CD8+ T Cell Isolation Kit) and plated with ImmunoCult™ Human CD3/CD28/CD2 T Cell Activator at 25 μl/mL in TexMACS cell culture media supplemented with 1001 U/mL human IL-2 and 100 U/ml Penicillin/Streptomycin. Human CTLs were incubated with Gli1/2 inhibitor GANT61 or EToH (carrier control) overnight and subsequently co-cultured with anti-CD3ε pulsed P815 target cells for 3 h at the indicated effector to target ratios and subjected to an LDH cytotoxicity assay. (A) Representative graph, (B) Quantification of N=3 donors normalised to killing of carrier treated cells at a 10:1 effector:target ratio. Error bars indicate SD. n=3 donors from 2 independent experiments. It is also known that Hh signalling in murine CD8+ T cells is not inducible via administration of extracellular Hh ligands (de la Roche et al. (2013)). Instead, Hh induction occurs via the modulation of L-type voltage-gated calcium (Cav) channels downstream of the T cell receptor. For example, Hanna et al. (2021) report that nifedipine-sensitive Cavs control Gli1 induction in naïve CD8+ T cells and CD8+ CTLs following TCR stimulation. […]

Structure (SMILES): CN(C)c1ccccc1CN1CCCN(Cc2ccccc2N(C)C)C1c1ccncc1 [GANT61]
- decrease in cell killing (RMA/S tumour cells [1]): ~15%
- specific tumour cell killing (RMA/S tumour cells [2]): greatly reduced
- reduction in specific cell killing [3]: 50%
- GzmB content (cytotoxic CD4+ T cells): unaffected
- IFNγ secretion (cytotoxic CD4+ T cells): unaffected
- GzmB content (NK cells): unaffected
- IFNγ secretion (NK cells): unaffected
- killing capacity of K562 target cells by gammadelta T cells (K562 target cells): reduced killing capacity
- tumour cell killing of human CD8+ cytotoxic lymphocytes (P815 target cells): reduces
